Assay [1] concerns the target Macrophage colony-stimulating factor 1 receptor (Homo sapiens) (UniProt P07333). Kind of assay: Selectivity interaction (KinomeScan (DiscoverX)) EUB0001049a CSF1R. To be noted: at 1 µM.
Assay [2] has as its target T1, Serine/threonine-protein kinase LATS2 (Homo sapiens) (UniProt Q9NRM7).
T1 sequence (whole entry): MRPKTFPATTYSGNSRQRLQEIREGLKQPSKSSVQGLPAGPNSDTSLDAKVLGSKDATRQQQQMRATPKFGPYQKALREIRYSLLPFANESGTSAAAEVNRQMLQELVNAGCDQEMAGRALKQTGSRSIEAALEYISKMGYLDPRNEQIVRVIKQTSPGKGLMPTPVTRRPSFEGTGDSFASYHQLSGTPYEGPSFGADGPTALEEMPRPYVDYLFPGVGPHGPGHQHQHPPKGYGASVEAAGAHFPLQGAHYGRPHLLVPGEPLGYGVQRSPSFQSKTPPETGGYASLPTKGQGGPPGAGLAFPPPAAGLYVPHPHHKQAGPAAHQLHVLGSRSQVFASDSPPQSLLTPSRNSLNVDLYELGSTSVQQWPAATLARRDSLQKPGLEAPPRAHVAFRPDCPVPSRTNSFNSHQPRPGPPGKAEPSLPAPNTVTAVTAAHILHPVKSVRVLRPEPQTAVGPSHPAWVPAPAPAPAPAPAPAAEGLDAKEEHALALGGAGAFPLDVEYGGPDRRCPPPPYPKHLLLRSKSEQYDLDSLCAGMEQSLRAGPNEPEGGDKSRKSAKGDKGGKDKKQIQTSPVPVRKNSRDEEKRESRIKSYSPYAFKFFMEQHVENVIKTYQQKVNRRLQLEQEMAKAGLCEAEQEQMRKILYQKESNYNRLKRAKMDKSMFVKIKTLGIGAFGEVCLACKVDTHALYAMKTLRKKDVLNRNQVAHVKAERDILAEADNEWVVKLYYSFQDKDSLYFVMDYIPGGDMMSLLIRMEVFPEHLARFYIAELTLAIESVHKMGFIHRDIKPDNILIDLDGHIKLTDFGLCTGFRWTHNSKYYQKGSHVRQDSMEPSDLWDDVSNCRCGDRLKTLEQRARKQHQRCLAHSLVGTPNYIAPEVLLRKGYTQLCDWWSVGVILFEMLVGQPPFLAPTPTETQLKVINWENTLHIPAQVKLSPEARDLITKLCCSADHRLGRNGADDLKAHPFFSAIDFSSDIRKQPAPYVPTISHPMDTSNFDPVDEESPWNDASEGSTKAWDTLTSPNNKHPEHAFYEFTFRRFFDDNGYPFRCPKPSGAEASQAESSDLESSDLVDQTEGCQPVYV
The assay is described as follows: Selectivity interaction (ActivX KiNativ screen (kinase selectivity in THP-1 cell lysates)) EUB0000639a LATS2. The format is subcellular. To be noted: lysate.

For assay [3], the target named is Serine/threonine-protein kinase Nek7 (Homo sapiens) (UniProt Q8TDX7). The assay is described as follows: Selectivity interaction (ActivX KiNativ screen (kinase selectivity in THP-1 cell lysates)) EUB0000639a NEK7. The format is subcellular. Conditions: lysate, at 0.04 µM.
Assay [4] addresses T2, Ephrin type-B receptor 1 (Homo sapiens) (UniProt P54762).
T2 sequence (whole entry): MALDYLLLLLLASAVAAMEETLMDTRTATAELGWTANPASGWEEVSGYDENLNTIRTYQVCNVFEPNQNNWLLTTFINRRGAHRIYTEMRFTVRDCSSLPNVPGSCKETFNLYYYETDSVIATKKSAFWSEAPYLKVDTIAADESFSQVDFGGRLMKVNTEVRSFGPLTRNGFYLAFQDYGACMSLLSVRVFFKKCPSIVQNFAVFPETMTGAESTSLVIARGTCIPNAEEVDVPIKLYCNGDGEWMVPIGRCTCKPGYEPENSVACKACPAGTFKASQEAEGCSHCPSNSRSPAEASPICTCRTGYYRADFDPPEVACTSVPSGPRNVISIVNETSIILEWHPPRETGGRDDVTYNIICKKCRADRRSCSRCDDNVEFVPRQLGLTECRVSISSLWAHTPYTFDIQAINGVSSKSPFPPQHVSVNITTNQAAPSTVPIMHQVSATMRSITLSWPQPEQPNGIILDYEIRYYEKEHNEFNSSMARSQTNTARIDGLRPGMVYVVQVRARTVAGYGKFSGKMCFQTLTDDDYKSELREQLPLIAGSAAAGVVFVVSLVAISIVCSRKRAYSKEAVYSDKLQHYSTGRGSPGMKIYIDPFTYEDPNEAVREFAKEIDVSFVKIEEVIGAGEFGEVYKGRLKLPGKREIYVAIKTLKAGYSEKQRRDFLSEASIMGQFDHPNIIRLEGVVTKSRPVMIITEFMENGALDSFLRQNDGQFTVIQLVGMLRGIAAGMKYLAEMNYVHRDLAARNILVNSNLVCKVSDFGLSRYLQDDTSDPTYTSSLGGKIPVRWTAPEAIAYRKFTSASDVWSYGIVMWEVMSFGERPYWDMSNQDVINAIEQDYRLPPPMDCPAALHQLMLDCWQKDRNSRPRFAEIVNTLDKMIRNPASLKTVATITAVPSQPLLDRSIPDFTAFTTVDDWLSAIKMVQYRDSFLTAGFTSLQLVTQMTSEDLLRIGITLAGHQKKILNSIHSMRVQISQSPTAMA
The assay is described as follows: Selectivity interaction (KinomeScan (DiscoverX)) EUB0000229b EPHB1. Conditions: at 10 µM.

For assay [5], the target named is RAC-alpha serine/threonine-protein kinase (Homo sapiens, UniProt P31749). The assay is described as follows: Selectivity interaction (Kinase panel (literature)) EUB0001199aCl AKT1. To be noted: at 1 µM.

Structures are written as SMILES.

Chain of RAC-alpha serine/threonine-protein kinase (P31749 whole entry): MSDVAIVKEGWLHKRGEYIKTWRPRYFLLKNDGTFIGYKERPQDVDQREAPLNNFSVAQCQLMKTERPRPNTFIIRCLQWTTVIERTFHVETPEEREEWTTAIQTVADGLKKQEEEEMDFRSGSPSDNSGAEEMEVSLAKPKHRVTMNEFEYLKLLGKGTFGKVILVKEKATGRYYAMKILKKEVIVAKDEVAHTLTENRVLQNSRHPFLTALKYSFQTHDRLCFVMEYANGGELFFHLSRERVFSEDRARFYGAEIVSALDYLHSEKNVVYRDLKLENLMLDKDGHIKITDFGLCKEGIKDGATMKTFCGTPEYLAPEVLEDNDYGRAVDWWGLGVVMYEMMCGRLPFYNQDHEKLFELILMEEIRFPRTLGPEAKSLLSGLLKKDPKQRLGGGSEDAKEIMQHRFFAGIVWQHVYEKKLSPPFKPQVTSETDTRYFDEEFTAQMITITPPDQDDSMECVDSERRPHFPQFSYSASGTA
Chain of Macrophage colony-stimulating factor 1 receptor (Homo sapiens) (P07333 whole entry): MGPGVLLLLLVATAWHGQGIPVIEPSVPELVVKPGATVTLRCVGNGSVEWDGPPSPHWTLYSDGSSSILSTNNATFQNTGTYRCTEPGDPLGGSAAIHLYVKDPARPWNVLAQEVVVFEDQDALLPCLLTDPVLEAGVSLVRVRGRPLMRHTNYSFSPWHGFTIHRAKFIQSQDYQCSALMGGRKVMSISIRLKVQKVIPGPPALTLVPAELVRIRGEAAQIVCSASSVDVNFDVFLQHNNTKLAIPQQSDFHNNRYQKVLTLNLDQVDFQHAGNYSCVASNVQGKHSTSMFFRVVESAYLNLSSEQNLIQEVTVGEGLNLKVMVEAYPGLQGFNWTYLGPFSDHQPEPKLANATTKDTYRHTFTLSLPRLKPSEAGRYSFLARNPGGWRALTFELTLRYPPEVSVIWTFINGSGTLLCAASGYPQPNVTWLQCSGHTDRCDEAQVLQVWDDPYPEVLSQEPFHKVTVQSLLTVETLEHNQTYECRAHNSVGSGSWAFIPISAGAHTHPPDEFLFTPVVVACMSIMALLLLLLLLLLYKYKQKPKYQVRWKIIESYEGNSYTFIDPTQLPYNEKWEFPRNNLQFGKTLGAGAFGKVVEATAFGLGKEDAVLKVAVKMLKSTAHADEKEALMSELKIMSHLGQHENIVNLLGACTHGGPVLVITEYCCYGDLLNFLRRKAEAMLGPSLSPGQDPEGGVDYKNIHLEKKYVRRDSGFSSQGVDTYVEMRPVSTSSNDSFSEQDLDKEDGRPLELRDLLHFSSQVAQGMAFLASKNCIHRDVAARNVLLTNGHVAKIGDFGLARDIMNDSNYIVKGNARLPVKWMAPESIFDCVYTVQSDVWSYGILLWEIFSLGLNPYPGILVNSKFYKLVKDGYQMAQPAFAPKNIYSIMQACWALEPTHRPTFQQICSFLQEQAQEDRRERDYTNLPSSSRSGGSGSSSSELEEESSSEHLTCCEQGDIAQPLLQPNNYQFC
Chain of Serine/threonine-protein kinase Nek7 (Homo sapiens) (Q8TDX7 whole entry, looked up): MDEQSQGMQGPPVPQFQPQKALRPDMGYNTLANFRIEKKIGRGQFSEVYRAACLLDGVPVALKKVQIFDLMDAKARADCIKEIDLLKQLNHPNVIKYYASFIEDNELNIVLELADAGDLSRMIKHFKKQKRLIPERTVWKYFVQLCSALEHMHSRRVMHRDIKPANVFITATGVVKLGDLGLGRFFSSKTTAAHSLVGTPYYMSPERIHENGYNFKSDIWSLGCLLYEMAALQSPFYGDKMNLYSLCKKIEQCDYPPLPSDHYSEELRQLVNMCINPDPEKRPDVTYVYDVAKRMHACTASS

The compound `COc1cc(Nc2nc(C)cc(-c3cnn4nc(OC)ccc34)n2)cc(C(F)(F)F)c1` yielded a % of control in assay [1] of 100%.
Consider `CC[C@@H]1[C@H](F)C(=O)N[C@@H]1COc1nccc2cc(C(N)=O)c(OC)cc12` [ZIMLOVISERTIB], for which the % of inhibition is -10.4% in assay [2] (at 0.01 µM); -16% in assay [2] (at 0.04 µM); 2.1% in assay [2] (at 0.2 µM); 32.5% in assay [2] (at 1 µM); 85% in assay [2] (at 5 µM); 1.5% in assay [3].
Turning to `COc1cc(N(C)c2ccnc3ccc(C(F)(F)F)cc23)cc(OC)c1OC`, in assay [4], the % binding was 97%.
On to `CN1Cc2nccc(-c3cn(C)nc3-c3ccc(F)cc3)c2C1=O`, for which, in assay [5], the % of inhibition is 1%.

Source of the values: ChEMBL document CHEMBL5465560, “Selectivity Literature for EUbOPEN Chemogenomic Library” (2024).
